Measurements from ChEMBL document CHEMBL6074688, “Discovery of a Novel Mutant-Selective Epidermal Growth Factor Receptor Inhibitor Using an In Silico Enabled Drug Discovery Platform” (J Med Chem, 2024).

Columns and labels:
CYP3A4/5 [1] = target: T1, CYP3A4/5 (Homo sapiens, UniProt P08684+P20815); assay: Time dependent inhibition of CYP3A4/5 (unknown origin) assessed as remaining activity at 30 uM relative to control; format: protein assay; details: read-out: Activity
CYP3A4/5 [2] = target: T1, CYP3A4/5; assay: Time dependent inhibition of CYP3A4/5 (unknown origin) at 30 uM measured after 30 mins relative to control; format: protein assay; details: read-out: TDI
[3] = target: Epidermal growth factor receptor (Homo sapiens, UniProt P00533, C797S/L858R/T790M); assay: Binding affinity to EGFR L858R/T790M/C797S mutant (unknown origin) assessed as inhibition constant incubated for 30 mins in presence of ATP by Real-time fluorescence based analysis
[4] = target: Epidermal growth factor receptor (Homo sapiens, UniProt P00533); assay: Binding affinity to wild type EGFR (unknown origin) assessed as inhibition constant incubated for 30 mins in presence of ATP by Real-time fluorescence based analysis
physchem = details: octanol/water
CYP3A4/5 [5] = target: T1, CYP3A4/5; assay: Time dependent inhibition of CYP3A4/5 (unknown origin) in presence of NADPH; format: ADME, protein assay
CYP3A4/5 [6] = target: T1, CYP3A4/5; assay: Time dependent inhibition of CYP3A4/5 (unknown origin) at 30 uM measured after 10 mins relative to control; format: ADME, protein assay; details: read-out: TDI
CYP3A4/5 [7] = target: T1, CYP3A4/5; assay: Reversible inhibition of CYP3A4/5 (unknown origin) at 30 uM relative to control; format: ADME, protein assay
CYP3A4/5 [8] = target: T1, CYP3A4/5; assay: Time dependent inhibition of CYP3A4/5 (unknown origin) in absence of NADPH; format: ADME, protein assay

Epidermal growth factor receptor (Homo sapiens, UniProt P00533), sequence (P00533 whole entry): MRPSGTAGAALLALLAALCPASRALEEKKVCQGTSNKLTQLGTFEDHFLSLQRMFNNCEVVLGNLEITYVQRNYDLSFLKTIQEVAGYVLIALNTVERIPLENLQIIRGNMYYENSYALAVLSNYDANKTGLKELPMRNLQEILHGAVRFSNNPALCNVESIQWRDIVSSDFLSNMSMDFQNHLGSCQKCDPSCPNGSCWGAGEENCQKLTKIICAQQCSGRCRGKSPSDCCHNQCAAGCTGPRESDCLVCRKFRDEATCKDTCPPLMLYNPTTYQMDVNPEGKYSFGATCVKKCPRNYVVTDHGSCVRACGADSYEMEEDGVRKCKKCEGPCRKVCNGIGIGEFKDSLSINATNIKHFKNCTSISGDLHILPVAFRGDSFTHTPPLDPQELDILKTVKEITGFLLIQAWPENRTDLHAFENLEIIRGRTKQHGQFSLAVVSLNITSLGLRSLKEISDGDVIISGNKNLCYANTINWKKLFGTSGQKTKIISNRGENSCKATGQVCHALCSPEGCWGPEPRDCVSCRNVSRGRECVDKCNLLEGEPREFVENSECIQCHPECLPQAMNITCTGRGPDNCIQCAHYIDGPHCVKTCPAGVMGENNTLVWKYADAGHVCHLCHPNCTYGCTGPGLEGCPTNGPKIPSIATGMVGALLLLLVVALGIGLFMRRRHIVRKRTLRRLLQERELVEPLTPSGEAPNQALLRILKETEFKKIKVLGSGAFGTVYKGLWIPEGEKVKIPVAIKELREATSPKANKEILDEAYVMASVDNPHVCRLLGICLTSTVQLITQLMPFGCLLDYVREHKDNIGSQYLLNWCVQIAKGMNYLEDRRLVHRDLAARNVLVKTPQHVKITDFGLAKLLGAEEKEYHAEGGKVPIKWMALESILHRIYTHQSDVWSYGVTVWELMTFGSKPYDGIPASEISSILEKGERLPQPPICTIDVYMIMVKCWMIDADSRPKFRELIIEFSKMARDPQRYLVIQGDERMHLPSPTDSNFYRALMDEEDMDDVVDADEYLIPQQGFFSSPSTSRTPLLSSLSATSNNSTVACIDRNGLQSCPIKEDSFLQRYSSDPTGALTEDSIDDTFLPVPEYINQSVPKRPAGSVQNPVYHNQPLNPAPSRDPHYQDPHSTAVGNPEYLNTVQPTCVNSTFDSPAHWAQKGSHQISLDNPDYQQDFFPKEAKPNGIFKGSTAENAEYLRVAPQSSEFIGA
Epidermal growth factor receptor (Homo sapiens, UniProt P00533, C797S/L858R/T790M), sequence (P00533 25-1210 T790M/C797S/L858R limits assumed): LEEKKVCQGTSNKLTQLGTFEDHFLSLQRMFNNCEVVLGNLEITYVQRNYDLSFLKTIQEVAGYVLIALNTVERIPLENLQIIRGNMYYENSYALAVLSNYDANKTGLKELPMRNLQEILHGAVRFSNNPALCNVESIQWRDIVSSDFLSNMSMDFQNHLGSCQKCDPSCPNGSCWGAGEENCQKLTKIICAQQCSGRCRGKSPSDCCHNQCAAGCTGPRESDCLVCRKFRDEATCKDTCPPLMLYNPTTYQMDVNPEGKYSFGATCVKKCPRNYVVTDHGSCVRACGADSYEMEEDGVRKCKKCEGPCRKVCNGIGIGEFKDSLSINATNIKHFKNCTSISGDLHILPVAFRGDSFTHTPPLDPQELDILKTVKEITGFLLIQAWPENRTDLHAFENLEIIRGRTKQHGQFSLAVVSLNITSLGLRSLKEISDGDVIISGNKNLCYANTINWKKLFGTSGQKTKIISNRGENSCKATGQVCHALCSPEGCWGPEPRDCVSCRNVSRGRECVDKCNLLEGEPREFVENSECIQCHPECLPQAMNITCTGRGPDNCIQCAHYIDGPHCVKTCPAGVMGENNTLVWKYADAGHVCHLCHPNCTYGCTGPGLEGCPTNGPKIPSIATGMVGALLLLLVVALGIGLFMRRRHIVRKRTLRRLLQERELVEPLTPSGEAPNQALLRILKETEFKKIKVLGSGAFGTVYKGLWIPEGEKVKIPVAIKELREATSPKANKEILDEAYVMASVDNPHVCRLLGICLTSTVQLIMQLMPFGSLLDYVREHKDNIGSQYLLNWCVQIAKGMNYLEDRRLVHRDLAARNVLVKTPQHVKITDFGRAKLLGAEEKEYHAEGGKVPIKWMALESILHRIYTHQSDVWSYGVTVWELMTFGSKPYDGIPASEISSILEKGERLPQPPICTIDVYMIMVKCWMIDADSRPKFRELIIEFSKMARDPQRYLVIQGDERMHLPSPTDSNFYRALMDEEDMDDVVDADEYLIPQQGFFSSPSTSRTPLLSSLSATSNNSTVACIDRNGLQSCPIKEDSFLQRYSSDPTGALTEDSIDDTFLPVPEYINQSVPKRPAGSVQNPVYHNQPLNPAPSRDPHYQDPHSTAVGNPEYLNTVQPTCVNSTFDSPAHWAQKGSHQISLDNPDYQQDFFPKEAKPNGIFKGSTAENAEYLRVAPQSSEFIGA

SMILES | activity at 30 µM (CYP3A4/5 [1]) [%] | inhibition at 0.5 h, 30 µM (CYP3A4/5 [2]) [%] | Ki [3] [µM] | logD at 3 h (physchem) | other results
CO[C@@H]1CCN(c2nccc(Nc3cc4n(C5CCC6(CC5)OCCO6)c(C#N)cn4n3)n2)C[C@@H]1F | 78 | 50 | – | – | –
Cc1cn2nc(Nc3ccnc(N4CC[C@@H](O)[C@@H](F)C4)n3)cc2n1C1C2CCCC1C2 (stereo partly drawn) | – | – | 0.0099 | 3.32 | Ki ([4]; read-out: Ki): 1.7 µM
CCc1cn2nc(Nc3ccnc(N4CC[C@@H](OC)[C@@H](F)C4)n3)cc2n1C1CCC2(CC1)OCCO2 | 39 | 34.9 | – | – | –
CCNC(=O)c1cn2nc(Nc3ccnc(N4CC[C@@H](OC)[C@@H](F)C4)n3)cc2n1C1CCC2(CC1)OCCO2 | 98 | 64 | – | – | –
CCc1cn2nc(Nc3ccnc(N4CC[C@@H](OC)[C@@H](F)C4)n3)cc2n1[C@H]1CC[C@]2(CCN(C)C2=O)CC1 | 65 | 55.8 | – | – | –
CO[C@@H]1CCN(c2nccc(Nc3cc4n(C5CCC6(CC5)OCCO6)c(C)cn4n3)n2)C[C@@H]1F | 57 | 52.4 | – | – | IC50 (CYP3A4/5 [5]): 156 µM; inhibition at 10 min, 30 µM (CYP3A4/5 [6]): 41.2%; inhibition at 30 µM (CYP3A4/5 [7]): 66%; IC50 (CYP3A4/5 [8]): 0.82 µM
CN1CCC2(CCC(n3c(C(F)(F)F)cn4nc(Nc5ccnc(N6CC[C@@H](O)[C@@H](F)C6)n5)cc34)CC2)C1=O (stereo partly drawn) | 86 | 34 | – | – | IC50 (CYP3A4/5 [5]): > 1.4 µM; IC50 (CYP3A4/5 [8]): 22 µM
CO[C@@H]1CCN(c2nccc(Nc3cc4n(C5CCC6(CC5)OCCO6)c(C(=O)NCC5CCN(C)CC5)cn4n3)n2)C[C@@H]1F | > 99 | 24 | – | – | –
CO[C@@H]1CCN(c2nccc(Nc3cc4n(C5CCC6(CC5)OCCO6)c(C(=O)NCC5CN(C)C5)cn4n3)n2)C[C@@H]1F | > 99 | 26 | – | – | –
O[C@@H]1CCN(c2nccc(Nc3cc4n(C5CCC6(CC5)OCCO6)c(C(F)(F)F)cn4n3)n2)C[C@@H]1F | 25 | 8.3 | – | – | IC50 (CYP3A4/5 [5]): 2.3 µM; IC50 (CYP3A4/5 [8]): 5.7 µM
COC1CCN(c2nccc(Nc3cc4n(C5CC5)c(C)cn4n3)n2)CC1 | – | – | 0.95 | 3.37 | Ki [4]: Not_active
COC1CCN(c2nccc(Nc3cc4n(C5CCC(=O)CC5)c(C)cn4n3)n2)CC1 | – | – | 0.027 | 2.27 | Ki [4]: Not_active
COC1CCN(c2nccc(Nc3cc4n(C)c(C)cn4n3)n2)CC1 | – | – | 6.1 | 2.56 | Ki [4]: Not_active
